Test results taken from patent US20260286573A1, “3D PRINTING ELECTROSPINNING SYSTEMS AND METHODS” (Board of Regents, The University of Texas System, priority 2023, published 2026).

Assay: Thermogravimetric analysis (TGA), thermal stability
Type: physicochemical
Details: for decrease in mass, initial phase of TGA (surface-absorbed water): 10 °C/min, nitrogen
Procedure: Thermogravimetric Analysis (TGA). FIG. 13 provides data showing thermogravimetric analysis (TGA) of raw materials and mixtures according to some examples. In some examples, the thermal properties of the raw materials and physical mixtures may be determined through a Mettler-Toledo TGA/DSC1 analyzer (Mettler-Toledo, Schwerzenbach, Switzerland). Sample raw materials and physical mixtures may be placed in an open ceramic crucible and ramped from 35° C. to 600° C. at a rate of 10° C./min. A furnace may be purged using ultra-purified nitrogen at a flow rate of 50 mL/min.
Thermogravimetric analysis (TGA) was conducted to examine the degradation patterns and thermal stabilities of EPO, S100, CUR, RTV, and Xspin bi-fibers (FIG. 13). TGA measures the change in sample mass as a function of temperature using a thermobalance.

Compound | weight loss, second phase of TGA (between 245 and 420° C.) [%] | decrease in mass, initial phase of TGA (surface-absorbed water) | weight loss, second phase of TGA (between 20° and 250° C.) [%] | second weight loss (TGA) (between 30° and 395° C.)
COc1cc(/C=C/C(=O)CC(=O)/C=C/c2ccc(O)c(OC)c2)ccc1O [CUR, Curcumin] | 60 | no losses | – | –
CC(C)c1nc(CN(C)C(=O)N[C@H](C(=O)N[C@@H](Cc2ccccc2)C[C@H](O)[C@H](Cc2ccccc2)NC(=O)OCc2cncs2)C(C)C)cs1 [RTV, Ritonavir] | – | no losses | 40 | ~ 50%
